Measurements: patent publication US7217810B2, “High level production of arbutin in green plants and microbes” (E. I. du Pont de Nemours and Company, priority 2003, dated 2007)

Legend:
UGT72B1 [1] = target: T1, UGT72B1 (Arabidopsis thaliana, UniProt Q9M156); conditions: highest of the benzoic acid derivatives analyzed; cited from earlier work
T1 construct: host or cells: E. coli (per the cited work)
T1 sequence (Q9M156 1-480): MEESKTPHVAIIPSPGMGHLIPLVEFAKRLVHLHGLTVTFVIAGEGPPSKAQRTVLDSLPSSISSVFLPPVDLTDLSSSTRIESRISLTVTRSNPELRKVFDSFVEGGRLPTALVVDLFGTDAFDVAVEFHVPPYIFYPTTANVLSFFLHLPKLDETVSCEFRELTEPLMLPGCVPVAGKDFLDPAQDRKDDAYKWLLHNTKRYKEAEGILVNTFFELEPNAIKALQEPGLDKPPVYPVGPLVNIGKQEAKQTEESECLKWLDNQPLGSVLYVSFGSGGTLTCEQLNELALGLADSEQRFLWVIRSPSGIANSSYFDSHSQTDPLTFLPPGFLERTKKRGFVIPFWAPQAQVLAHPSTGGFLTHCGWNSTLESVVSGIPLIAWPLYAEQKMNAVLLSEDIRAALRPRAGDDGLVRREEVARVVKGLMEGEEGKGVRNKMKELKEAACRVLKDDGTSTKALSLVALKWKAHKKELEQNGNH

UGT72B1 [2] = target: UGT72B1 (Arabidopsis thaliana, UniProt Q9M156, E284K/I310V/T253S)
Experimental: The enzyme was diluted to a final concentration of 0.115 ng/μL using 50 mM Tris HCl (pH 7.5), 1 mM MgCl2 and 2 mM DTT. […] Arbutin formation was quantitated by HPLC analysis as follows: 10 μL of analyte were separated on a Nova-Pak® C18 column (60 Å pore size, […]) using a gradient from 2% acetonitrile, 1.5% phosphoric acid (solvent A) to 48% acetonitrile, 1.5% phosphoric acid (solvent B). The following solvent gradient is applied: 0–5 min 100% solvent A; 5–20 min linear gradient of 0–100% solvent B; 21–25 min 100% solvent A. Arbutin was detected at 221 nm absorbance wavelength and quantitated using calibration curves generated with a commercially available standard of arbutin.
The data was fitted to the Michaelis-Menten equation. […] In this plot, an estimate of the Km is provided as the slope of the line representing the linear regression curve through the points and the Vmax by the intercept of the regression curve with the y axis.
(§1) This turnover number was calculated using a molecular weight of the UGT72B1 enzyme of 53,015.33 Da calculated with the PEPIDESORT software package of the GCG.

arbutin synthase [3] = target: T2, arbutin synthase (Rauvolfia serpentina, UniProt Q9AR73); conditions: 50° C., 1 mM hydroquinone; cited from earlier work
arbutin synthase [4] = target: T2, arbutin synthase; conditions: 50° C., converted from cited Vmax using 51,793.01 Da
Experimental: as §1

O=C(O)c1ccc(O)cc1 = experiment: purified protein, by the assay type; conditions: other: pHBA 0.2 to 400 μM, fitted to Michaelis-Menten equation; 25.0 °C
Oc1ccc(O)cc1 = experiment: purified protein, by the assay type; conditions: pH 7.5; 37.0 °C

O=C(O)c1cc(O)ccc1O [2,5-dihydroxybenzoic acid]
specific activity (UGT72B1 [1]): 11.72 pkat/μg protein

Oc1ccc(O)cc1 [hydroquinone, 1,4-dihydroxybenzene]
apparent Km (UGT72B1 [2]): ~0.3 µM | hydroquinone concentration giving significant substrate inhibition (UGT72B1 [2]; Michaelis-Menten plot, FIG. 5): greater than 100 μM | Vmax with hydroquinone relative to Vmax with benzoic acid substrates (UGT72B1 [2]; compared with Lim et al. values): ~68 fold | apparent Vmax (UGT72B1 [2]; hydroquinone as substrate, 20 mM UDPG, 37° C., Hofstee plot): ~796 pmol/sec/1 g | turnover number (Kcat) (UGT72B1 [2]; hydroquinone as substrate, 37° C.): 42 s⁻¹ | Vmax (arbutin synthase [3]): 26.32 pkat/μg | turnover number (arbutin synthase [4]): 1.4 s⁻¹

pHBA 1-hydroxylase (Lodderomyces parapsilosis CDC317)
Km (O=C(O)c1ccc(O)cc1): 0.31 µM | Vmax (O=C(O)c1ccc(O)cc1): 6.4 µmol/min/mg

UGT72B1 (Arabidopsis thaliana; E284K/I310V/T253S)
Km (Oc1ccc(O)cc1): 0.3 µM
